Measurements taken from PubChem BioAssay (NCI).
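Dose response: 5 concentrations. Exposure: 48 h. Format: 96-well plates. Endpoint: linear interpolation; highest concentration if not reached. At the GI50, growth is halved. TGI is the concentration that stops growth completely.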

Legend:
Assay in all cases: growth of human tumour cells (NCI), 48 h
NCI-H226 lung = tested on: NCI-H226 lung
SK-MEL-28 melanoma = tested on: SK-MEL-28 melanoma
SK-MEL-5 melanoma = tested on: SK-MEL-5 melanoma
HCC-2998 colon = tested on: HCC-2998 colon
CCRF-CEM leukemia = tested on: CCRF-CEM leukemia
UACC-62 melanoma = tested on: UACC-62 melanoma
BT-549 breast = tested on: BT-549 breast
PC-3 prostate = tested on: PC-3 prostate

SMILES	GI50 (NCI-H226 lung) [µM]	TGI (NCI-H226 lung) [µM]	GI50 (SK-MEL-28 melanoma) [µM]	TGI (SK-MEL-28 melanoma) [µM]	GI50 (SK-MEL-5 melanoma) [µM]	TGI (SK-MEL-5 melanoma) [µM]	GI50 (HCC-2998 colon) [µM]	TGI (HCC-2998 colon) [µM]	GI50 (CCRF-CEM leukemia) [µM]	TGI (CCRF-CEM leukemia) [µM]	GI50 (UACC-62 melanoma) [µM]	TGI (UACC-62 melanoma) [µM]	GI50 (BT-549 breast) [µM]	TGI (BT-549 breast) [µM]	GI50 (PC-3 prostate) [µM]	TGI (PC-3 prostate) [µM]
CN(c1ccccc1)c1c2ccccc2nc2[nH]c3ccccc3c12	1.91	4.44	2.08	7.42	1.62	3.56	3.05	12.1	1.27	> 100	1.5	4.21	4.36	13.1	2.78	14.7
CN(C)CCCC1(c2ccc(F)cc2)OCc2cc(-c3csc4ccccc34)ccc21 (centres undefined)	1.8	3.52	1.68	3.07	1.77	3.17	1.65	3.14			1.69	3.13			1.73	3.29
CN(C)[C@@H]1C(=O)C(C(=O)NCc2nc3[nH]cnc(=S)c3[nH]2)=C(O)[C@@]2(O)C(=O)C3=C(O)c4c(O)cccc4[C@@](C)(O)[C@H]3C[C@@H]12			> 100	> 100	24.8	> 100	5.09	> 100	1.02	> 100	2.91	> 100	> 100	> 100	29.7	> 100
N#C[Se]CCN1C(=O)c2ccccc2C1=O	1.6	3.82	1.8	4.99			3.87	15.2	0.934	30.3	1.52	3.74	1.66	3.53	1.74	8.27
FC(F)(F)c1cccc(CNC2CCN(CCc3ccccc3)CC2)c1	62.4	> 100	16	31.7	12.3	24.7	17.7	37.2	27	75.8	13.9	30.7	24.8	> 100	32	> 100
COc1ccc(-c2c(Nc3ccccn3)nc3c(C4=CCCCC4)c(-c4ccccc4)[nH]n3c2=O)cc1	2.78	17.8	4.55	> 100	2.67	> 100	3.7	> 100	1.22	6.58	2.2	16.2	1.88	17.6	2.17	> 100
COc1ccc(Cn2c(Br)c3c(c2-c2cc(OC)c(OC)c(OC)c2)CCc2sc(N)nc2-3)cc1	6.93	> 50.6	4.76	33.6	1.6	13.5	2.93	12.3	0.89	4.4	0.598	15	2.39	9.09	1.57	> 100
O=C1NC(=NCc2cccs2)O/C1=C\c1ccc2ncccc2c1	5.82	> 19.8	5.87	18	4.63	9.83	7.76	> 25	4.8	16.7	4.42	11.5	3.15	13.3	6.33	> 25
CN(C)c1ccc(/C=N/N=C(\C#N)[S][Sn]([Cl])([c]2ccccc2)[c]2ccccc2)cc1	1.82	3.46	1.48	2.93	1.66	3.37	1.28	2.61	0.281	1.05	1.41	2.87	1.57	3.04	2.94	8.38
O=C(O)c1cn(C2CC2)c2cc(N3CCN(C(=O)N(c4ccccc4)c4nc(-c5ccccc5)cs4)CC3)c(F)cc2c1=O			0.687	> 100	0.717	> 100	0.595	> 100	0.276	> 100			0.349	6.81		
O=c1c(Oc2ccc(F)cc2F)cc2cnc(NC3CCOCC3)nc2n1C1CC1	> 22.9	> 25	> 25	> 25	> 25	> 25	> 25	> 25	> 25	> 25	> 25	> 25	> 25	> 25	> 25	> 25
COc1cc2c3c(n(CCCN)c(=O)c2cc1OC)-c1ccc(N)cc1C3=O	2.85	14.5	2.16	14.7	0.902	2.88	0.806	6	0.389	7.28	1.08	10.7	1.97	8.85	1.19	22.1
O=C(CCN1CCOCC1)Nc1ccc(Cn2nnc3c2C(=O)c2nnn(Cc4ccc(NC(=O)CCN5CCOCC5)cc4)c2C3=O)cc1	> 100	> 100			0.59	1.71	2.62	6.68	0.34	> 100	1.53	3.14	2.87	8.77		> 100
COc1ccc(-n2c(=O)c3ccccc3n(Cc3ccc(C(=O)NO)cc3)c2=O)cc1	1.56	3.75	2.18	5.83	1.73	3.45	1.81	3.58	2.8	> 100	1.8	4.28	2.08	4.91	2.08	5.06
C=CCN(CC=C)Cc1c[nH]c2ccccc12			> 100	> 100	6	23.8	27.8	72.7	56.9	> 100	18.1	54.1	2.31	8.33	32.4	> 100
OCc1ccc(N2CCc3ccc(F)cc3C2)cc1Cl	0.0267	0.114	13.1	26.1	0.856	20	1.7	14.4	2.6	9.97	0.0405	0.248	15.2	29.3	12.7	27.4

SMILES	GI50 (NCI-H226 lung) [µM]	TGI (NCI-H226 lung) [µM]	GI50 (SK-MEL-28 melanoma) [µM]	TGI (SK-MEL-28 melanoma) [µM]	GI50 (SK-MEL-5 melanoma) [µM]	TGI (SK-MEL-5 melanoma) [µM]	GI50 (HCC-2998 colon) [µM]	TGI (HCC-2998 colon) [µM]	GI50 (CCRF-CEM leukemia) [µM]	TGI (CCRF-CEM leukemia) [µM]	GI50 (UACC-62 melanoma) [µM]	TGI (UACC-62 melanoma) [µM]	GI50 (BT-549 breast) [µM]	TGI (BT-549 breast) [µM]	GI50 (PC-3 prostate) [µM]	TGI (PC-3 prostate) [µM]
c1cc(OCCCCCOc2cccc(-c3nc4ccccc4[nH]3)c2)cc(-c2nc3ccccc3[nH]2)c1	1.92	> 100	2.82	> 100	1.68	3.08	3.32	28			2.83	> 100	1.72	5		
C#CCCCCCC(=O)N[C@H]1C=C[C@@H]2/C=C(C)/C=C/[C@@H](C)[C@H]([C@H](C)[C@H](O)[C@@H](C)NC(C)=O)OC(=O)/C=C/C=C(C)\C=C\[C@]2(C)C1	0.00478	6.05	0.00795	12.3	< 0.004	0.00803	6.16	> 40	0.479	> 40	0.023	9.04	< 0.004	> 40	< 0.004	> 40
O=C(/C=C(\[O-])c1ccccc1)CCCCCCC(=O)/C=C(\[O-])c1ccccc1.O=C(/C=C(\[O-])c1ccccc1)CCCCCCC(=O)/C=C(\[O-])c1ccccc1.O=C(/C=C(\[O-])c1ccccc1)CCCCCCC(=O)/C=C(\[O-])c1ccccc1.[Y+3].[Y+3]	39.2	> 50	> 50	> 50	34.8	> 50	> 50	> 50			47.5	> 50				
O=[N+]([O-])c1ccc(/C=C(/c2ccc([N+](=O)[O-])o2)S(=O)(=O)c2ccccc2)cc1		75		> 100		34.3						75.7		> 100		> 100
CNCc1cccc2c1OCCOCCOCCNS(=O)(=O)c1ccc(cc1)-c1cnc(N)c(n1)C(=O)N2	2.21	8.09	1.66	3.27	1.69	3.29	1.79	4.69	0.532	8.57	1.61	2.99	1.27	8.14		
O=C1c2ccccc2N1C(=O)c1ccccc1[N+](=O)[O-]		> 100		> 100		> 100		> 100		> 100		> 100				> 100
NS(=O)(=O)c1cc2c(cc1Cl)NCNS2(=O)=O		> 100		> 100		> 100		> 100		> 100						> 100
O=C1C[C@@H]2OCC=C3C[N+]4([O-])CC[C@]56c7ccccc7N1[C@H]5[C@H]2[C@H]3C[C@@H]64 (some centres undefined)	> 100	> 100	> 100	> 100	> 100	> 100	> 100	> 100	> 100	> 100	> 100	> 100			> 100	> 100
CCCCCCCCCCN=C(N)c1ccc(N2CCN(c3ccc(C(N)=NCCCCCCCCCC)cc3)CC2)cc1	7.72	> 50	4.76	36	2.19	> 50	3.51	> 50			6.67	38.1	1.69	5.04	2.94	12.1
COc1cc2c(cc1OCCN1CCN(CCN3C(=O)c4cccc5cccc(c45)C3=O)CC1)N=C[C@@H]1CCCN1C2=O	20.1	40.3	32.5	77.7	16	29.5			19.9	39	18.2	35	19	34.9	18.1	32
O=S(=O)(Nc1ccccc1)c1ccc(C2CC3(Cl)C(Cl)=C(Cl)C2(Cl)C3(Cl)Cl)cc1 (centres undefined)	1.87	4.47			1.93	3.74	1.81	3.46	3.24	11.9	1.66	3.58	2.46	5.85	2.74	10.2
CC(=O)O[C@H]1C[C@@H]2[C@@]3(C)CC[C@H]4C[C@@]4(C)[C@@H]3CC[C@@]2(C)C2=CCC3=C(COC3=O)[C@]21C	16	32.6	21.6	44	17.7	34.5	23.7	51.4	33.6	> 100	16.6	36.4			18.4	46.1
CCN1CCN(CC(=O)Nc2nc3ccc(NCc4ccc(Br)cc4)cc3s2)CC1	7.89	> 100	1.92	3.76	1.68	3.08					1.9	3.52				
O=C(NO)c1ccc(CNc2cccc3nc(C4CC4)n(-c4ccccc4)c(=O)c23)cc1	2.93	15	2.01	4.26	2.15	4.8	1.81	3.44	1.5	> 100	1.96	4.66	3.24	14.3		
COc1cc(/C=C/c2cc(/C=C/c3ccc(O)c(OC)c3)n(C(=O)Nc3ccc(C)cc3)n2)ccc1O	1.19	4.82	0.797	6.87	0.306	1.21	2.12	9.46			0.519	2.61	0.306	2.34	0.404	2.53
